Our source for the Ki, EC50 and LELP values is publication PMC4048319, “Design and Synthesis of High Affinity Inhibitors of Plasmodium falciparum and Plasmodium vivax N-Myristoyltransferases Directed by Ligand Efficiency Dependent Lipophilicity (LELP)” (Journal of Medicinal Chemistry, 2014).

Experiment [1] deals with T1, PfNMT (Plasmodium falciparum, UniProt Q9U419).
T1 sequence (Q9U419 1-410): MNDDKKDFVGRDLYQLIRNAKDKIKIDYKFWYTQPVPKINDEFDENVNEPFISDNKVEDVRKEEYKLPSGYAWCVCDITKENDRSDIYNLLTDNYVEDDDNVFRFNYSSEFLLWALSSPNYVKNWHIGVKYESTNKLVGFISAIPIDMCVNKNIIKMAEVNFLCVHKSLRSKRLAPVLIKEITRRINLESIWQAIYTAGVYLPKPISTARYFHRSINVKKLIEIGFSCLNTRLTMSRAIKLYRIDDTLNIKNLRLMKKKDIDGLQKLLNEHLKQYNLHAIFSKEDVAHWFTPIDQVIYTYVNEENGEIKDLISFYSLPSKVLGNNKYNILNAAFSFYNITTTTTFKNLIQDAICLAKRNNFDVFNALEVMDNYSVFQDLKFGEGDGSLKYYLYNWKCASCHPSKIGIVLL
In words: NMT enzyme inhibition, CPM fluorescence assay (PfNMT). Type of experiment: biochemical. The method, then:
(§1) All IC50 determinations were carried out using a 7-diethylamino-3-(4′-maleimidylphenyl)-4-methylcoumarin (CPM) fluorescence assay, as described previously for HsNMT1,[45] PvNMT,[46] and PfNMT.[21]
(§2) IC50 values are the mean value of two or more determinations, and standard deviation is within 20% of the IC50 unless otherwise specified. Data were elaborated using Microsoft Office Excel 2010, and IC50 values were determined using GraFit 7.0 (Erithacus Software Ltd., U.K.) by nonlinear regression fitting, which were then quoted as Ki as defined below.
(§3) The Michaelis constant (Km) was 3.64 μM and the substrate concentration was 4.00 μM, resulting in a Ki of 0.008 μM. Km values were calculated as described previously.[45]

In experiment [2] the target is T2, PvNMT (Plasmodium vivax, UniProt A5K1A2).
T2 sequence (A5K1A2 1-410): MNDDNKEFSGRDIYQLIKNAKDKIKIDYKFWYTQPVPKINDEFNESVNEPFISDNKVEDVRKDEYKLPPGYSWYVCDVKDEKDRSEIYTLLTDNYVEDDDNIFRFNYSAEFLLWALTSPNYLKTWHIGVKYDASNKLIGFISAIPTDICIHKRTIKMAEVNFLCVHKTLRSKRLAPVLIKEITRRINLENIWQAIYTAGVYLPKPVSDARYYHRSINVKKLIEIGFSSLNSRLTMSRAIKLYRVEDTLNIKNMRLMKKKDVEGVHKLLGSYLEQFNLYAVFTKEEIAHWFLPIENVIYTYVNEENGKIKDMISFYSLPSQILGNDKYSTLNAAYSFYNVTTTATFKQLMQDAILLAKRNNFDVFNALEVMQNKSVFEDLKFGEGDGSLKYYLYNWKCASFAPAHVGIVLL
The experiment in a line: NMT enzyme inhibition, CPM fluorescence assay (PvNMT). Type of experiment: biochemical. The method, then: as §1, §2, §3

Experiment [3] concerns Plasmodium falciparum 3D7. In words: Plasmodium falciparum Sybr Green viability assay (3D7). Format: cell-based. To be noted: blood stage, Sybr Green fluorometric assay, 96 h, read-out: Pf 3D7 EC50. The method, then:
Synchronous Plasmodium falciparum 3D7 late stage trophozoites at 33–36 h were used. […] Red blood cells used for the assay were centrifuged to remove the buffy coat and washed twice in Roswell Park Memorial Institute (RPMI) medium 1640 so that no white blood cells were present. The culture medium contained RPMI 1640 with 5 g/L Albumax, 0.025 g/L gentamycin, and 0.292 g/L L-glutamine. Sterile 96-well black tissue culture plates (Costar) were used routinely for every assay. […] Two sets of control were used in duplicate wells, one set with no added drugs (positive control) and one with uninfected red blood cells (negative control). […] After 48 h supernatants were taken from each well and replaced with fresh drug and incubated for a further 48 h in the same manner. At the end of the 96 h incubation, 25 μL of SYBR Green I dye (SYBR Green I nucleic acid gel stain 10000×, in DMSO from Invitrogen) in lysis buffer (1 μL dye to 1 mL of lysis buffer) was added to each well and stored overnight at −20 °C. […] Plates were warmed to room temperature, and fluorescence intensity was measured with a FLUOstar Omega microplate fluorescence reader (BMG Labtech). Values were expressed in relative fluorescence units. […] Fluorescence intensity unit was converted to percentage (%) of growth as follows: [drawing 2]

The target of experiment [4] is T1, PfNMT. In words: LELP (cLogP/LE, PfNMT LE).

Usually Ki stands for a dissociation constant, usually derived from enzyme kinetics or from competition with a known ligand. A low value points to a stronger hold on the target. The term EC50 denotes the concentration that produces a half-maximal response. For `COc1cccc(COC(=O)c2sc3ccccc3c2OC2CCNCC2)c1` [compound 1], the values for the Ki in experiment [1] and in experiment [2] were 832 nM and 84 nM, respectively. The EC50 in experiment [3] was 2000 nM. The LELP in experiment [4] is recorded as 13.5.
